Experimental data taken from paper PMC4012454 (Marine Drugs, 2014).

How the values were obtained:
[1] = target: brevetoxin receptor (site five of voltage gated sodium channels); assay type: binding
[2] = target: brevenal receptor; assay type: binding
[3] = system: sheep; details: in vivo; cited from earlier work

C=C/C=C\CC[C@H]1O[C@H]2CC[C@@]3(C)O[C@H]4[C@@H](O)C[C@@]5(C)O[C@@H](CC/C=C(C)/C(C)=C/C=O)[C@@H](C)C[C@H]5O[C@@H]4C[C@@H]3O[C@@H]2CC[C@@]1(C)O [Compound 3, brevenal]
Ki [1]: 1130 ± 153 nM
Ki [2]: 137 ± 16 nM
bronchoconstriction (effect on RL) [3]: no effects observed

C=C(C=O)C[C@@H]1C[C@H](O)[C@]2(C)O[C@@H]3C[C@@H]4O[C@@H]5C[C@]6(C)O[C@]7(C)CC[C@@H]8O[C@@H]9C[C@]%10(C)O[C@@H]%11C(C)=CC(=O)O[C@H]%11C[C@H]%10O[C@H]9C[C@@H](C)[C@H]8O[C@H]7C[C@H]6O[C@H]5C/C=C\[C@H]4O[C@H]3C[C@H]2O1 [brevetoxin, PbTx-2]
increase in RL (pulmonary resistance) [3]: 221% ± 21%
